As a reminder, the pEC50 is −log10 of the EC50, conventionally taken in molar units. Lower therefore signals a high EC50. Broadly, the pIC50 is the negative decadic logarithm of the IC50, by convention in mol/L. The low end stands for a large IC50, the high end for a small IC50.

Consider 1 molecule from US7399744B2, “Methods for affecting body composition” (Amylin Pharmaceuticals, Inc., priority 2004, dated 2008).

pEC50, pIC50: −log10 of the molar value. Bridge positions count the residues as written; N and C are the ends. Peptide text beside a SMILES is read from it.

Assay [1] has as its system insulin-stimulated glycogen synthesis in soleus muscle. Put plainly: Soleus muscle assay. The following applies: rat soleus muscle, inhibition of glucose incorporation into glycogen. It counts as cell-based. The procedure:
Concentrations of peptide dissolved in carrier-free buffers are determined by quantitative amino acid analysis, as described therein. The ability of compounds to act as agonists in this assay is determined by measuring EC50 values. […] Similar results were obtained with other agonist compounds listed above.

The next assay has as its target T1, amylin receptors (Rattus norvegicus, UniProt P32214+Q9JJ74).
T1 construct: This basal forebrain tissue, containing the nucleus accumbens and surrounding regions, was weighed and homogenized; from tissue; host or cells: rat basal forebrain (nucleus accumbens and surrounding regions) membranes
T1 sequence (P32214 25-516): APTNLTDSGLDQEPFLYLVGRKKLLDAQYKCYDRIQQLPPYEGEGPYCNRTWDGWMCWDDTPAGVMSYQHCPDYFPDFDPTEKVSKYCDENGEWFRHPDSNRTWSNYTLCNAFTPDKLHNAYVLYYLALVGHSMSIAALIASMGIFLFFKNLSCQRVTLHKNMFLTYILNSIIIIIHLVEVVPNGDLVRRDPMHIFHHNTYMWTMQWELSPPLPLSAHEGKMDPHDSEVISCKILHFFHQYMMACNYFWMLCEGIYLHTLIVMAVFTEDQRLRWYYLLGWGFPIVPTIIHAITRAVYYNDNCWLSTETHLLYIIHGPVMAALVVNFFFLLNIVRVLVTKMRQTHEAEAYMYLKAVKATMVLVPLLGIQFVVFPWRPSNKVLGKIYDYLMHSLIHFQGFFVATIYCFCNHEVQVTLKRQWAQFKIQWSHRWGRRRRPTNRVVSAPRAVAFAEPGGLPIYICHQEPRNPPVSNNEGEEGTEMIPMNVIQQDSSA
T1 sequence (Q9JJ74 27-148): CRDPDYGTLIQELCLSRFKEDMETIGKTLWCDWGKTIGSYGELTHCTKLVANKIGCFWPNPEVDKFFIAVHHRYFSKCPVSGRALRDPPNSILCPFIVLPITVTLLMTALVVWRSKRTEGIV
Put plainly: Receptor binding assay (competition with 125I Bolton Hunter rat amylin, basal forebrain membranes). The text has this:
A preferred source of the membrane preparations used in the assay is the basal forebrain which comprises membranes from the nucleus accumbens and surrounding regions.
Unlabeled peptides were obtained from BACHEM Inc. (Torrance, Calif.) and Peninsula Laboratories (Belmont, Calif.).
Male Sprague-Dawley rats (200-250) grams were sacrificed by decapitation. Brains were removed to cold phosphate-buffered saline (PBS). From the ventral surface, cuts were made rostral to the hypothalamus, bounded laterally by the olfactory tracts and extending at a 45° angle medially from these tracts. This basal forebrain tissue, containing the nucleus accumbens and surrounding regions, was weighed and homogenized in ice-cold 20 mM HEPES buffer (20 mM HEPES acid, pH adjusted to 7.4 with NaOH at 23° C.). […] The final membrane pellet was resuspended in 20 mM HEPES buffer containing 0.2 mM phenylmethylsulfonyl fluoride (PMSF).
Solutions were incubated for 60 minutes at 23° C. […] Filters were washed immediately before filtration with 5 ml cold PBS, and immediately after filtration with 15 ml cold PBS.

With `CC[C@H](C)[C@H](NC(=O)[C@H](C)NC(=O)CNC(=O)[C@H](Cc1ccccc1)NC(=O)[C@H](CC(N)=O)NC(=O)[C@H](CC(N)=O)NC(=O)[C@H](CO)NC(=O)[C@H](CO)NC(=O)[C@H](Cc1c[nH]cn1)NC(=O)[C@@H](NC(=O)[C@H](CC(C)C)NC(=O)[C@H](Cc1ccccc1)NC(=O)[C@H](CC(N)=O)NC(=O)[C@H](C)NC(=O)[C@H](CC(C)C)NC(=O)[C@H](CCCNC(=N)N)NC(=O)[C@H](CCC(N)=O)NC(=O)[C@@H](NC(=O)[C@H](C)NC(=O)[C@@H]1CCCCNC(=O)C[C@H](NC(=O)[C@@H](N)CCCCN)C(=O)N[C@@H](CC(N)=O)C(=O)N[C@@H]([C@@H](C)O)C(=O)N[C@@H](C)C(=O)N[C@@H]([C@@H](C)O)C(=O)N1)[C@@H](C)O)C(C)C)C(=O)N[C@@H](CC(C)C)C(=O)N[C@@H](CO)C(=O)N[C@@H](CO)C(=O)N[C@H](C(=O)N[C@@H](CC(N)=O)C(=O)N[C@H](C(=O)NCC(=O)N[C@@H](CO)C(=O)N[C@@H](CC(N)=O)C(=O)N[C@H](C(=O)N[C@@H](Cc1ccc(O)cc1)C(N)=O)[C@@H](C)O)C(C)C)[C@@H](C)O` [^2,7Cyclo-[^2Asp,^7Lys]-h-Amylin] (H-KDNTATKATQRLANFLVHSSNNFGAILSSTNVGSNTY-NH2; lactam 2-7; N-terminus and C-terminus assumed), the negative logarithm of the EC50 (pEC50) in assay [1] was 8.18. The molecule further gave a pIC50 on amylin receptors of 9.51.
